Values of other authors in patent US8865693B2, “Prevention of infection” (Pop Test Cortisol LLC, priority 2011, dated 2014).

Columns and labels:
glucocorticoid receptor = biological target: T1, glucocorticoid receptor (Homo sapiens, UniProt P04150); conditions: in words only
T1 sequence (P04150 1-777): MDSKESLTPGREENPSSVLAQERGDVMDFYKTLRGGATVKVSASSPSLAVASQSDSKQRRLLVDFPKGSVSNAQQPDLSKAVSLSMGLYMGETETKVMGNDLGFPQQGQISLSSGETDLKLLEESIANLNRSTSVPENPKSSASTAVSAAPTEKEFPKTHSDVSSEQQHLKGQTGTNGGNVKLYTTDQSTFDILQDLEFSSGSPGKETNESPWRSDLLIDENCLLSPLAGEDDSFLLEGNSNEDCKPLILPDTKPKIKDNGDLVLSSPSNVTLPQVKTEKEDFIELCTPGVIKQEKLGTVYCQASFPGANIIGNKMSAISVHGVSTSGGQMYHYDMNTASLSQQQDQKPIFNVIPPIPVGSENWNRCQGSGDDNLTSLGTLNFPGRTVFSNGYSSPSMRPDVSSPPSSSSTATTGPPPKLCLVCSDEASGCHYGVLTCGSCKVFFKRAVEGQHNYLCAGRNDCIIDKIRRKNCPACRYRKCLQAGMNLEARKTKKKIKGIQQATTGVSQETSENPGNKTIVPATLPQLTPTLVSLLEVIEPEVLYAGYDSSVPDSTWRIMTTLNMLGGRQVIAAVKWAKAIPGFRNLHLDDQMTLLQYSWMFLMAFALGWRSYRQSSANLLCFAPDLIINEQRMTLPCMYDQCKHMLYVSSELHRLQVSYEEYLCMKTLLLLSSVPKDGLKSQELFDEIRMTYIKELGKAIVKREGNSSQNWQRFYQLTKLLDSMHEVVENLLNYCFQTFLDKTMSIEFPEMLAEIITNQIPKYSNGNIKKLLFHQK

[1] = in words only
[2] = in words only; remark: listed apart in the source
[3] = phase I and phase II clinical trials already performed
[4] = tested on: mineralocorticoid, progesterone, estrogen and androgen receptors; conditions: in words only

- glucocorticoid receptor binding affinity (glucocorticoid receptor): high
- cross-binding to other related steroidal hormone receptors (such as those for estrogen and progesterone) [4]: without significant cross-binding
SMILES: CC#C[C@]1(O)CC[C@H]2[C@@H]3CCC4=CC(=O)CCC4=C3[C@@H](c3ccc4c(c3)OCO4)C[C@@]21C [ORG 34517, (11β,17β)-11-(1,3-benzodioxol-5-yl)-17-hydroxy-17-(1-propynyl) estra-4,9-dien-3-one]
- androgenic activities [1]: low
- progestagenic activities [2]: low
- significant toxicities and side effects identified [3]: none were identified
